≈ marks a conversion by molar mass, not a printed value.

This test concerns Mycobacterium tuberculosis. Kind of test: Antimycobacterial activity against multidrug-resistant Mycobacterium tuberculosis assessed as mycobacterial growth inhibition. Format: functional.
Broadly, the MIC50 is an inhibitory concentration at the 50% level, which refers to growth in some studies and to a panel of isolates in others. What is called MIC90 is an inhibitory concentration at the 90% level, which refers to growth in some studies and to a panel of isolates in others. For `COc1nc(-c2ccc(Cl)cc2)ccc1[C@@H](c1ccccc1)[C@@](O)(CCN(C)C)c1cccc2ccccc12`, the MIC50 came to 0.111 µg/mL (≈ 0.207 µM) and the MIC90 was 0.465 µg/mL (≈ 0.866 µM).
In the same order, the values of `COc1nc2ccc(Br)cc2cc1[C@@H](c1ccccc1)[C@@](O)(CCN(C)C)c1cccc2ccccc12` [BEDAQUILINE] are 0.032 µg/mL (≈ 0.0576 µM) and 0.111 µg/mL (≈ 0.2 µM).
Take `NNC(=O)c1ccncc1` [ISONIAZID]: the MIC50 amounted to 4.21 µg/mL (≈ 30.7 µM) and the MIC90 was above 40 µg/mL.
In the case of `NC[C@H]1O[C@H](O[C@H]2[C@H](O)[C@@H](O[C@H]3O[C@H](CO)[C@@H](O)[C@H](N)[C@H]3O)[C@H](N)C[C@@H]2N)[C@H](O)[C@@H](O)[C@@H]1O` [KANAMYCIN], the MIC50 amounted to 1.24 µg/mL (≈ 2.55 µM) and the MIC90 is above 40 µg/mL.
In the same order, the values of `CO[C@H]1/C=C/O[C@@]2(C)Oc3c(C)c(O)c4c(O)c(c(/C=N/N5CCN(C)CC5)c(O)c4c3C2=O)NC(=O)/C(C)=C\C=C\[C@H](C)[C@H](O)[C@@H](C)[C@@H](O)[C@@H](C)[C@H](OC(C)=O)[C@@H]1C` [RIFAMPIN] are above 40 µg/mL and above 40 µg/mL.

(Values after ChEMBL document CHEMBL5113423, “Discovery and preclinical profile of sudapyridine (WX-081), a novel anti-tuberculosis agent” (Bioorg Med Chem Lett, 2022).)
